Experimental data from patent publication US7595171B2 (Sinotrade Technology Limited, priority 2005, dated 2009).
Like-named read-outs stand apart in the source and are kept apart here. Marks after values point to notes of the source that are not given here.

How the values were obtained:
Weed [1] = assay: Pre-emergence herbicide trial: weed control; assay type: in vivo
A. palaestina = assay: Seed germination after gibberellic acid pre-soak; assay type: in vivo, Adonis palaestina
Method: Adonis […] populations were evaluated for seed viability and germination. Although seed viability is fair (about 30 to about 70%), germination is very low.

Weed [2] = assay: Container trials: weed control at reduced metribuzin level; assay type: in vivo
Adonis seedlings = test system: Adonis seedlings
Source text: Seedlings emerging from metribuzin-treated soil were sprayed with a grass-specific herbicide [graminicide; (RS)-7-(4,6-dimethoxypyrimidin-2-ylthio)-3-methyl-2-benzofuran-1(3H)-one] at the seed leaf stage; this would normally be expected to “check” the seedlings (i.e.; cause a degree of non-lethal stress) when applied at the usual time (three true leaf stage).

Adonis [3] = assay: Pre-emergence herbicide trial: Adonis seedling establishment; assay type: in vivo, Adonis palaestina; details: for Adonis seedling density: after graminicide stress treatment
[4] = Rainbow trout feeding trial: astaxanthin levels in fillets before and after freezing and smoking; assay type: in vivo; details: rainbow trout, fillet (flesh), oral, Control treatment, averaged over three fillet zones, read-out: HPLC astaxanthin level Average
Method: (§1) Rainbow trout fed synthetic or Adonis-derived astaxanthin in a feeding trial were harvested 63 days after the feeding trial started and the astaxanthin levels were examined spectrophotometrically (Minolta Chroma Meter) and chemically (by HPLC analysis after lipid removal from the flesh extract) before and after freezing (2 months) and smoking. The initial astaxanthin levels in the feed were adjusted to achieve similar levels of pigmentation of the fish before treatments were carried out. Because pigment levels vary along the length of the fish, measurements were carried out at three positions along each fish (head, mid-body and tail).

Rainbow trout = assay: as above; assay type: in vivo; details: averaged over three fillet zones
Method: as §1

Sclerotinia sclerotiorum = assay: Dosage effect of pure cardenolides on pathogen growth (Sclerotinia); assay type: cell-based; details: pure cardenolide
Method: Two different cardenolides (cymarin and strophanthidin) were assessed for their dosage effect on pathogen response.

Adonis [5] = details: at high pH
Method: Container trials were conducted on the effect of sand content and soil pH on metribuzin-associated Adonis mortality.

[6] = 25 % manufacturer's recommended rate
[7] = 50 % manufacturer's recommended rate
[8] = 12.5 % manufacturer's recommended rate

Question: Which Weed density (Weed [1]; [6]) does the source give for `COC(=O)NS(=O)(=O)c1ccc(N)cc1` [Asulox ®, methyl(4-aminophenyl)sulfonylaminoformate] here?
Answer: The Weed density was 86 % cover.

Question: And the Weed density (Weed [1]; [7])?
Answer: Its Weed density is 74 % cover.

Question: And the Weed density (Weed [1]; 100 % manufacturer's recommended rate)?
Answer: The Weed density was 87 % cover.

Question: And the weed control (Weed [1]; pre-emergence herbicide)?
Answer: The weed control was “did not achieve much weed control”.

Question: With `C=C1C[C@]23C[C@@]1(O)CC[C@H]2[C@@]12C=C[C@H](O)[C@@](C)(C(=O)O1)[C@H]2[C@@H]3C(=O)O` [Gibberellic acid, gibberellic acid] as the molecule, how does the germination (A. palaestina; 24-hour incubation with GA in ethanol at room temperature) read?
Answer: The germination was “further improved germination”.

Question: What about the “% germination” value (A. palaestina; 1000 ppm, pre-soak 24 hours, 4 °C) of the same molecule?
Answer: Its value is 4.3%.

Question: What about the “% germination” value (A. palaestina; 1000 ppm, pre-soak 24 hours, 16 °C) of the same molecule?
Answer: Its value is 8.7%.

Question: And the “% germination” value (A. palaestina; 1000 ppm, pre-soak 48 hours, 4 °C)?
Answer: The value was 13.7%.

Question: And the “% germination” value (A. palaestina; 1000 ppm, pre-soak 48 hours, 16 °C)?
Answer: The value was 22.3%.

Question: What about the “% germination” value (A. palaestina; 2000 ppm, pre-soak 24 hours, 4 °C) of the same molecule?
Answer: The value was 10.7%.

Question: What about the “% germination” value (A. palaestina; 2000 ppm, pre-soak 24 hours, 16 °C) of the same molecule?
Answer: The value was 12.6%.

Question: What about the “% germination” value (A. palaestina; 2000 ppm, pre-soak 48 hours, 4 °C) of the same molecule?
Answer: The value was 20.4%.

Question: What about the “% germination” value (A. palaestina; 2000 ppm, pre-soak 48 hours, 16 °C) of the same molecule?
Answer: Its value is 28.7%.

Question: And the “% germination” value (A. palaestina; 3500 ppm, pre-soak 24 hours, 4 °C)?
Answer: The value was 21.4%.

Question: What about the “% germination” value (A. palaestina; 3500 ppm, pre-soak 24 hours, 16 °C) of the same molecule?
Answer: Its value is 25.7%.

Question: What about the “% germination” value (A. palaestina; 3500 ppm, pre-soak 48 hours, 4 °C) of the same molecule?
Answer: Its value is 28.7%.

Question: And the “% germination” value (A. palaestina; 3500 ppm, pre-soak 48 hours, 16 °C)?
Answer: Its value is 45.7%.

Question: And the “% germination” value (A. palaestina; 5000 ppm, pre-soak 24 hours, 4 °C)?
Answer: Its value is 28.0%.

Question: What about the “% germination” value (A. palaestina; 5000 ppm, pre-soak 24 hours, 16 °C) of the same molecule?
Answer: Its value is 34.7%.

Question: What about the “% germination” value (A. palaestina; 5000 ppm, pre-soak 48 hours, 4 °C) of the same molecule?
Answer: Its value is 40.3%.

Question: And the “% germination” value (A. palaestina; 5000 ppm, pre-soak 48 hours, 16 °C)?
Answer: The value was 64.7%.

Question: What about the germination (A. palaestina; pre-soaking seed in 5000 ppm for 24 hours before sowing) of the same molecule?
Answer: The germination was 64.7%.

Question: Which weed control (Weed [2]; 125 g/ha) does the source give for `CSc1nnc(C(C)(C)C)c(=O)n1N` [Metribuzin, 4-amino-6-tert-butyl-4,5-dihydro-3-methlythio-1,2,4-triazin-5-one] here?
Answer: The weed control was “inadequate”.

Question: What about the weed control (Weed [2]; 250 g/ha) of the same molecule?
Answer: The weed control was “reasonable weed control”.

Question: What about the seedling death (Adonis seedlings; 500 g/ha metribuzin, graminicide sprayed at seed leaf stage) of the same molecule?
Answer: Its seedling death is 30%.

Question: What about the Adonis density (Adonis seedlings; Metribuzin 250 g/ha, +Graminicide, −Urea) of the same molecule?
Answer: Its Adonis density is 97 # plants m^−2.

Question: What about the Adonis density (Adonis seedlings; Metribuzin 250 g/ha, −Graminicide, +Urea) of the same molecule?
Answer: The Adonis density was 107 # plants m^−2.

Question: And the Adonis density (Adonis seedlings; Metribuzin 250 g/ha, −Graminicide, −Urea)?
Answer: The Adonis density was 103 # plants m^−2.

Question: And the Adonis density (Adonis seedlings; Metribuzin 500 g/ha, +Graminicide, +Urea)?
Answer: The Adonis density was 94 # plants m^−2.

Question: And the Adonis density (Adonis seedlings; Metribuzin 500 g/ha, +Graminicide, −Urea)?
Answer: Its Adonis density is 65 # plants m^−2.

Question: What about the Adonis density (Adonis seedlings; Metribuzin 500 g/ha, −Graminicide, +Urea) of the same molecule?
Answer: The Adonis density was 104 # plants m^−2.

Question: What about the Adonis density (Adonis seedlings; Metribuzin 500 g/ha, −Graminicide, −Urea) of the same molecule?
Answer: The Adonis density was 98 # plants m^−2.

Question: And the Adonis density (Adonis seedlings; Metribuzin (pre) + 250 (post) g/ha, +Graminicide, +Urea)?
Answer: Its Adonis density is 107 # plants m^−2.

Question: What about the Adonis density (Adonis seedlings; Metribuzin (pre) + 250 (post) g/ha, +Graminicide, −Urea) of the same molecule?
Answer: Its Adonis density is 105 # plants m^−2.

Question: What about the Adonis density (Adonis seedlings; Metribuzin (pre) + 250 (post) g/ha, −Graminicide, +Urea) of the same molecule?
Answer: The Adonis density was 102 # plants m^−2.

Question: And the Adonis density (Adonis seedlings; Metribuzin (pre) + 250 (post) g/ha, −Graminicide, −Urea)?
Answer: Its Adonis density is 100 # plants m^−2.

Question: What about the Weed density (Weed [1]; [8]) of the same molecule?
Answer: The Weed density was 85 % cover.

Question: And the Weed density (Weed [1]; [6])?
Answer: The Weed density was 79 % cover.

Question: What about the Weed density (Weed [1]; [7]) of the same molecule?
Answer: Its Weed density is 56 % cover.

Question: What about the Adonis seedling density (Adonis [3]; [8]) of the same molecule?
Answer: The Adonis seedling density was 12.1 m^−2.

Question: What about the Adonis seedling density (Adonis [3]; [6]) of the same molecule?
Answer: Its Adonis seedling density is 5.9 m^−2.

Question: What about the Adonis seedling density (Adonis [3]; [7]) of the same molecule?
Answer: Its Adonis seedling density is 1.2 m^−2.

Question: And the “safety on Adonis” value (Adonis [3]; pre-emergence herbicide)?
Answer: Its value is “could be used safely on Adonis”.

Question: Which results are given for `CC1=C(/C=C/C(C)=C/C=C/C(C)=C/C=C/C=C(C)/C=C/C=C(C)/C=C/C2=C(C)C(=O)C(O)CC2(C)C)C(C)(C)CC(O)C1=O` (stereo not drawn) [Synthetic, 3,3′-dihydroxy-β,β-carotene-4,4′-dione]?
Answer: concentration at 63 days [4]: 15100 ng/g; Spectrophotometric (Hunter a values) Average (Rainbow trout; Control treatment, harvested 63 days): 6.5; HPLC astaxanthin level Average (Rainbow trout; Frozen (2 months)): 11.2 mg/kg fish; Spectrophotometric (Hunter a values) Average (Rainbow trout; Frozen (2 months)): 4.2; HPLC astaxanthin level Average (Rainbow trout; Smoked): 14.0 mg/kg fish; Spectrophotometric (Hunter a values) Average (Rainbow trout; Smoked): 5.8

Question: With `NC(N)=O` [Urea, urea] as the molecule, how does the Adonis density (Adonis seedlings; Metribuzin 0 g/ha, −Graminicide, +Urea) read?
Answer: Its Adonis density is 95 # plants m^−2.

Question: Which “growth of Sclerotinia” value (Sclerotinia sclerotiorum) does the source give for `CO[C@H]1C[C@H](O[C@H]2CC[C@]3(C=O)[C@H]4CC[C@]5(C)[C@@H](C6=CC(=O)OC6)CC[C@]5(O)[C@@H]4CC[C@]3(O)C2)O[C@H](C)[C@H]1O` [cymarin] here?
Answer: Its value is “inhibited”.

Question: For `CCOP(=S)(OCC)Oc1nc(Cl)n(C(C)C)n1` [isazophos, O-(5-Chloro-1-(1-methylethyl)-1H-1,2,4-triazol-3-yl) O,O-diethyl phosphorothioate], which “interaction with metribuzin (Adonis mortality)” value (Adonis [5]) is on record?
Answer: The value was “negative interaction”.

Question: With `C[C@]12CC[C@H]3[C@@H](CC[C@]4(O)C[C@@H](O)CC[C@]34C=O)[C@@]1(O)CC[C@@H]2C1=CC(=O)OC1` [strophanthidin] as the molecule, how does the “growth of Sclerotinia” value (Sclerotinia sclerotiorum) read?
Answer: The value was “inhibited”.
